For `COCC(C)Nc1cc(-c2ccnc(Nc3cccc(Cl)c3)c2)ccn1` (stereo not shown) [Compound A1.10, N*2′*-(3-Chloro-phenyl)-N*2*-(2-methoxy-1-methyl-ethyl)-[4,4′]bipyridinyl-2,2′-diamine], the melting point was 110 °C.

Reference: patent US8389442B2, “N-phenyl-′(4-pyridyl)-azinyl!amine derivatives as plant protection agents” (Syngenta Crop Protection LLC, priority 2003, dated 2013)
